According to patent publication US8337941B2, “Fluorescent substrates for monoamine transporters as optical false neurotransmitters” (The Trustees of Columbia University in the City of New York, priority 2006, dated 2012):
Entries after “also recorded” stand apart in the source; their conditions may differ. Read-outs that look alike come from different tables or passages of the source.

How the values were obtained:
[1] = photophysical characterization (fluorescence spectra); assay type: physicochemical; settings: for λem / λex: 100 mM sodium phosphate pH 7.4, 10 uM probe; for pH dependency of fluorescence: spectra at pH 2, 5, 7.4, 9 and 12
Protocol: All spectra were recorded in 100 mM sodium phosphate (pH 7.4) unless otherwise indicated. Recorded λmax is that of the longest wavelength transition. Extinction coefficients were reported as the average of at least three independent preparations of the probes. Fluorescence measurements were taken on a Jobin Yvon Fluorolog fluorescence spectrofluorometer in 100 mM sodium phosphate pH 7.4 at a concentration of 10 uM in probe, excited at their respective λmax.

VMAT2 = biological target: T1, VMAT2 (Homo sapiens, UniProt Q05940); assay: in vitro competitive binding assay, membranes from HEK cells stably transfected with VMAT2; settings: inhibition of binding to membranes from HEK cells stably transfected with VMAT2; read-out: apparent IC50
T1 construct: expressed in transfected cells; host or cells: HEK cells, stably transfected; membranes
Source text: On the basis of initial encouraging results, compound FFN 511 was submitted to rigorous investigation, from which it emerged as a promising imaging probe. Catecholamines are stored in chromaffin large dense core vesicles (LDCVs), which contain vesicular monoamine transporter 1 (VMAT1). Although VMAT 1 and 2 are distinct proteins, they share many functional characteristics.

evoked DA release = evoked DA release in slice measured by cyclic voltammetry; assay type: cell-based, mouse
Source text: FFN 511 was destained by neuronal stimulation in a calcium-dependent manner under conditions identical to those that release DA as measured by simultaneous cyclic voltammetry. (FFN 511 is not oxidized and not measured by cyclic voltammetry).

chromaffin cells [2] = assay: TIRF assay of stimulation-dependent exocytosis from FFN 511-loaded chromaffin granules; assay type: cell-based, mouse; settings: single LDCV
Source text: Total internal reflectance fluorescence microscopy (TIRF) was used as a functional assay for the ability of FFN 511-loaded chromaffin granules to undergo stimulation-dependent exocytosis. TIRF allows for fluorescence excitation in a narrow −100 nm thick layer of the cell immediately adjacent to the surface.

DA terminals = assay: labeling and destaining of DA terminals in live striatal acute slice; assay type: cell-based, mouse
Source text: Distribution of FFN 511 was compared to DA neurons using striatal slices prepared from a transgenic mouse expressing GFP under the control of tyrosine hydroxylase (TH) promoter (36).
As FFN 511 was applied in a “pulse-chase” pattern, with the extracellular probe washed out following accumulation in the terminals, these experiments essentially measure the amount of DA remaining in the terminal and the released transmitter. The probability of release from a given terminal under a particular stimulus condition is simply the fractional destaining, i.e., Pterminal=Ft/(Ft0−Fbkgnd) Pterminal=1−(Ft−Fbkg)/(Ft0−Fbkg),
where Ft0 is the initial fluorescent intensity and Fbkgnd is the label remaining after maximal stimulus is applied.

chromaffin cells [3] = assay: probe uptake and labeling in chromaffin cells by fluorescence microscopy; assay type: cell-based, mouse
Source text: Chromaffin cells are an excellent model system as the cytoplasm of these cells in culture is almost completely filled with large dense core vesicles that accumulate catecholamines by VMAT.
If necessary, metabolism of the probes by MAO (present in mitochondria) may be reduced by the addition of a suitable inhibitor (deprenyl for MAO B, clorgyline for MAO A) or by simply methylating the α-position of the amine (10, 14).
Catecholamines are stored in chromaffin large dense core vesicles (LDCVs), which contain vesicular monoamine transporter 1 (VMAT1). Although VMAT 1 and 2 are distinct proteins, they share many functional characteristics.

[4] = 4 Hz stimulation, in the presence of calcium

T1 sequence (Q05940 whole entry, species assumed): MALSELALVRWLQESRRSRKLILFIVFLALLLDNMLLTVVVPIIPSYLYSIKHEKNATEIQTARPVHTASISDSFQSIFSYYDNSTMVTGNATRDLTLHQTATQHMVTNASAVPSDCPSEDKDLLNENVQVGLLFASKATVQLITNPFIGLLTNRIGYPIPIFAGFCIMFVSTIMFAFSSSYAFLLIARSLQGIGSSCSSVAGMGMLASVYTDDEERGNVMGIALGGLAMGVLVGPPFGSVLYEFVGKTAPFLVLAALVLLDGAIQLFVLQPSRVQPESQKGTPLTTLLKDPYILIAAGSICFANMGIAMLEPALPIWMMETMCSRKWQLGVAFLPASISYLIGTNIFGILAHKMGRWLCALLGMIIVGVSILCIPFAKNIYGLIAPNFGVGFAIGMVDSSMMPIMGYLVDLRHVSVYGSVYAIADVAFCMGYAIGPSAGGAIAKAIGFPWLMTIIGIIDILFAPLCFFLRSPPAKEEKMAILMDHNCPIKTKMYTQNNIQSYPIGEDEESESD

For CCN(CC)c1ccc2c(C)cc(=O)oc2c1 [Coumarin 1, reference compound], the “behaviour of fluorescence in water / aqueous buffer solution” value [1] was “drops in water”, the λem [1] was 470 nm and the λex [1] was 384 nm.
Compound NCCc1ccc(O)c(O)c1 [DA, dopamine, reference compound] has an IC50 (VMAT2) of about 1 µM.
For O=C(O)C(F)(F)F.O=c1cc(O)c2ccc(N3CCNCC3)cc2o1 [Probe 484, 4-(4—Hydroxy-coumarin-7-yl)-piperazin-1-ium trifluoroacetate], the λem [1] was 385 nm, the λex [1] was 319 nm and the “pH dependency of fluorescence” value ([1]; trifluoroacetate) was “possess pH-dependency; also recorded: shift in fluorescence emission maxima seen with changing pH”.
In the case of NCCNc1ccc2ccc(=O)oc2c1 [Probe 505, 7-(2-Amino-ethylamino)-coumarin], the λem [1] is reported as 455 nm and the λex [1] is reported as 361 nm.
In the case of NCCc1cc(=O)oc2c3c4c(cc12)CCCN4CCC3 [Probe 511, 8-(2-Amino-ethyl)-2,3,5,6-tetrahydro-1H,4H-11-oxa-3a-aza-benzo[de]anthracen-10-one], the “effect on evoked DA release at higher concentrations” value (evoked DA release) is reported as “reduced evoked DA release”, the “effect on evoked DA release at levels sufficient to label the terminals” value (evoked DA release) is reported as “did not alter evoked DA release” and the emission maximum ([1]; compared with GFP) is reported as about 500 nm. For the same compound, the “pH dependency of fluorescence” value [1] was “increased fluorescence seen at alkaline pH values”, the IC50 (VMAT2) was 2.5 µM and the “release from LDCVs on high potassium stimulation” value (chromaffin cells [2]) was “released by exocytosis”. For the same compound, the “number of action potentials to release about 50% of the terminal content” value (DA terminals; [4]) was 640 action potentials, the “time to release about 50% of the terminal content” value (DA terminals; [4]) was about 160 s and the “fluorescent labeling in corpus callosum” value (DA terminals; acute slices, mouse CNS) was “no labeling”. The “fluorescent labeling in cortex” value (DA terminals; acute slices, mouse CNS) was “fainter fluorescence with patchy distribution”, the “fluorescent labeling in striatum” value (DA terminals; acute slices, mouse CNS) was “clearly observed in presynaptic terminals” and the “FFN 511 labeling after unilateral 6-OHDA lesion of DA neurons” value (DA terminals; injected hemisphere, slices 21 days post-lesion) was “nearly completely abolished”. The “calcium dependence of stimulated destaining” value (DA terminals; neuronal stimulation) was “completely dependent on the presence of calcium”, the “labeling of chromaffin cells” value (chromaffin cells [3]) was “selectively label healthy chromaffin cells” and the “duration of linear increase of intracellular probe concentration (fluorescence)” value (chromaffin cells [3]; 500 nM in physiological saline solution) was “at least 60 minutes”. For the same compound, the “uptake into chromaffin vesicles” value (chromaffin cells [3]; At 50 nM) was “actively taken up into chromaffin vesicles”, the “time window in which uptake is linear” value (chromaffin cells [3]; FFN 511 500 nM, single chromaffin cells) was 10 to 60 min and the “accumulation in acidic compartments of the cells” value (chromaffin cells [3]; abolished by chloroquine exposure) was “accumulates in acidic compartments”. The “fluorescence after addition of lipophilic weak base chloroquine” value (chromaffin cells [3]; chloroquine 100 μM) was “completely abolished”, the “staining of cell nuclei” value (chromaffin cells [3]; chromaffin cells) was “nuclear exclusion” and the “effect of VMAT inhibitor tetrabenazine on probe uptake” value (chromaffin cells [3]; chromaffin cells, TBZ 10 uM (FIG. 20), p=0.001 vs control) was “abolished by Tetrabenazine; also recorded: inhibited by tetrabenazene”.
With CN(C)c1ccc2cc3ccc(N(C)C)cc3nc2c1 [acridine orange, reference compound] the “behaviour of fluorescence in water / aqueous buffer solution” value [1] was “drops in water”.
In the case of CC(N)Cc1ccccc1 (stereo not shown) [amphetamine, reference compound], the “loss of 511 fluorescence” value (DA terminals; 10 μM, 10 min, striatal slice) is reported as about 50%.
With COC(=O)[C@H]1[C@H]2C[C@@H]3c4[nH]c5cc(OC)ccc5c4CCN3C[C@H]2C[C@@H](OC(=O)c2cc(OC)c(OC)c(OC)c2)[C@@H]1OC [reserpine, reference compound] the “inhibition of 511 labeling by VMAT2 inhibitors” value (DA terminals) was “strongly inhibited”.
For COc1cc2c(cc1OC)C1CC(=O)C(CC(C)C)CN1CC2 (stereo not shown) [tetrabenazine, reference compound], the “inhibition of 511 labeling by VMAT2 inhibitors” value (DA terminals; striatal slice, reserpine 10 μM, 2 hours (FIG. 36B)) was “strongly inhibited”.
